Values after ≈ are worked out from the molar mass of the structure shown.
What was measured:
PC 12 cell line = test: Cytotoxicity assay (CCK-8) on PC 12; assay type: cell-based, rat; settings: 20 μM
Experimental: RAW264.7 cells were cultured in 96-well plates at a density of 3 × 10^4 cells/mL in Dulbecco’s modified Eagle’s medium (DMEM, Gibco, Baltimore, MD, USA) with 10% fetal calf serum (Gibco, Baltimore, MD, USA), 100 U/mL penicillin, and 100 μg/mL streptomycin. Plates were incubated in an atmosphere containing 5% CO2 at […]. PC 12 cells were cultured in 96-well plates at a density of 8000 cells/mL in Dulbecco’s modified Eagle’s medium (DMEM, Gibco, Baltimore, MD, USA) with 10% fetal calf serum (Gibco, Baltimore, MD, USA), 100 U/mL penicillin, and 100 μg/mL streptomycin. Plates were incubated in an atmosphere containing 5% CO2 at 37 °C. Cells were treated with different concentrations of test compounds for 48 h. Then, 10 μL CCK-8 solution were added to all the wells. After 4 h incubation, the absorbance at 450 nm of each well was measured in a multiscan photometer.

[1] = system: H2O2-stimulated PC 12 cell lines; test: Protection against H2O2-induced oxidative damage (CCK-8); assay type: cell-based, rat; settings: for viability at 5 µM / viability at 10 µM / viability at 20 µM: Rattus norvegicus; for viability at 5 µM: PC-12, Dose 5 μM; for viability at 5 µM / viability at 10 µM / viability at 20 µM / Cell viability: H2O2-induced oxidative damage, PC 12, H2O2 group 49.69 ± 1.37, control 100; for viability at 10 µM: PC-12, Dose 10 μM; for viability at 20 µM: PC-12, Dose 20 μM; for anti-oxidant capacity compared with curcumin: 10 μM; for anti-oxidant capacity compared with curcumin / cell survival rate (anti-oxidant): H2O2-stimulated PC 12; for Cell viability: in % (unit assumed); for cell survival rate (anti-oxidant): at 20 μM
Experimental: PC 12 cells were seeded in 96-well plates at a density of 8000 cells/well and incubated overnight. […] After incubating under the same conditions for 24 h, 10 μL CCK-8 solution was added to each well. After 2 h incubation, the absorbance of each well was measured at 450 nm using a microplated reader (Multiskan MK-3, Thermo, Waltham, MA, USA).

[2] = system: LPS-stimulated RAW264.7 cell lines; test: LPS-induced NO production (Griess) in RAW264.7; assay type: cell-based, murine; settings: for The production of NO: LPS-stimulated RAW264.7, LPS group 49.86 ± 0.62, control 1.20 ± 0.38; for inhibitory activity against NO production compared with curcumin: 10 μM
Experimental: RAW 264.7 cells were plated in 96-well plates at a density of 1 × 10^4 cells/well and incubated overnight at 37 °C under 5% CO2. […] Dexamethasone (Solarbio, D8040, Beijing, China) was used as the positive control. Then, 24 h later, NO production was determined by measuring the nitrite content using Griess reagents. Fifty microliters of culture supernatants were transferred to 96-well plates and mixed with 50 μL Griess reagent A. After incubation at room temperature for 5 min, the samples were mixed with an equal volume Griess reagent B for another 5 min. The absorbance of each mixture at 540 nm was measured using a microplate reader.

PC 12 cell lines = test: Radiation protection in vitro (CCK-8); assay type: cell-based, rat; settings: for radiation protection capacity / radiation protection capability compared with curcumin: 10 μM; for radiation protection capacity: versus radiation group; for Cell viability / viability at 20 µM / viability at 5 µM / viability at 10 µM: radiation 8.0 Gy, PC 12, radiation group 50.22 ± 1.08; for Cell viability: in % (unit assumed); for viability at 20 µM / viability at 5 µM / viability at 10 µM: Rattus norvegicus; for viability at 20 µM: PC-12, Dose 20 μM; for viability at 5 µM: PC-12, Dose 5 μM; for viability at 10 µM: PC-12, Dose 10 μM
Experimental: The rat adrenal pheochromocytoma cells (PC 12) were used for in vitro studies. A Cell Counting Kit-8 (CCK-8, Applygen Technologies Co., Ltd., Beijing, China) assay was used to determine cell viability. […] Cells were irradiated with dose of 8.0 Gy at a dose rate of 0.8 Gy/min. Then, 10 μL CCK-8 solution was added to all the wells. After 4 h incubation, the absorbance at 450 nm of each well was measured in a multiscan photometer.

[3] = Aqueous solubility determination by UV spectrophotometer; assay type: physicochemical; settings: water, thermodynamic from solid, saturated solution concentration
Experimental: A UV spectrophotometer was used to test the aqueous solubility of target compounds. Each compound to be tested was prepared into solutions with concentrations of 0.2 M, 0.1 M, 0.05 M, 0.025 M, 0.0125 M, 0.00625 M, and 0.003125 M. The optical density (OD) values of the prepared solutions were measured using an ultraviolet spectrophotometer, and concentration–OD-value standard curves were drawn for each compound to be tested. The saturated solutions of the target compounds were diluted by 5000 times and detected using an ultraviolet spectrophotometer to measure the OD values, respectively. The measured OD values were substituted into the corresponding concentration-OD value standard curve to calculate the diluted concentrations, which were multiplied by 5000 to obtain the saturated solution concentrations of the target compounds.

[4] = cited from earlier work

| solubility [3] [mg/mL] | Compound | effect on PC 12 cell proliferation (PC 12 cell line) | viability at 5 µM [1] [%] | viability at 10 µM [1] [%] | viability at 20 µM [1] [%] | The production of NO ([2]; Dose 5 μM) | The production of NO ([2]; Dose 10 μM) | The production of NO ([2]; Dose 15 μM) | radiation protection capacity (PC 12 cell lines) | Cell viability (PC 12 cell lines; Dose 5 μM) | Cell viability (PC 12 cell lines; Dose 10 μM) | viability at 20 µM (PC 12 cell lines) [%] | anti-oxidant capacity compared with curcumin [1] | Cell viability ([1]; Dose 5 μM) | Cell viability ([1]; Dose 10 μM) | Cell viability ([1]; Dose 20 μM) | cell survival rate (anti-oxidant) [1] [%] | inhibitory activity against NO production compared with curcumin [2] | viability at 5 µM (PC 12 cell lines) [%] | viability at 10 µM (PC 12 cell lines) [%] | also measured |
| --- | --- | --- | --- | --- | --- | --- | --- | --- | --- | --- | --- | --- | --- | --- | --- | --- | --- | --- | --- | --- | --- |
|  | CCOc1cc(/C=C/C(=O)CC(=O)/C=C/c2cc(CN(C)C)c(O)c(OC)c2)ccc1O [Compound 1] | significant promoting effect | 63.9 ± 2.86 | 74.7 ± 4.82 | 86.4 ± 3.89 | 44.55 ± 0.55 | 34.25 ± 0.96 | 12.30 ± 0.90 | a certain degree of radiation protection capacity | 47.61 ± 1.20 | 57.30 ± 1.29 | 89.7 ± 8.17 |  |  |  |  |  |  |  |  |  |
|  | COc1ccc(/C=C/C(=O)CC(=O)/C=C/c2cc(CN(C)C)c(O)c(OC)c2)cc1OC [Compound 5] | significant promoting effect | 71.02 ± 0.56 | 84.4 ± 1.86 | 103 ± 3.36 | 34.62 ± 0.76 | 16.89 ± 1.33 | 9.97 ± 1.11 | a certain degree of radiation protection capacity | 58.70 ± 4.93 | 64.93 ± 4.67 |  | better anti-oxidant capacity |  |  |  |  |  |  |  | Cell viability (PC 12 cell lines; Dose 20 μM): 104.23 ± 2.86 |
| 118 (≈ 268 mM) | COc1ccc(/C=C/C(=O)CC(=O)/C=C/c2cc(CN(C)C)c(O)c(OC)c2)cc1OC [Compound 5a] | significant promoting effect |  |  |  | 33.90 ± 1.94 | 15.60 ± 2.78 | 9.88 ± 0.53 | a certain degree of radiation protection capacity |  |  | 105 ± 5.01 | better anti-oxidant capacity | 75.15 ± 5.90 | 84.53 ± 2.36 | 106.17 ± 3.34 | 106 | better inhibitory activity | 58.2 ± 1.86 | 68.7 ± 5.9 | radiation protection capability compared with curcumin (PC 12 cell lines; irradiated PC 12): better radiation protection capability |
| 112 (≈ 239 mM) | COc1cc(/C=C/C(=O)CC(=O)/C=C/c2ccc(OC)c(OC)c2OC)cc(CN(C)C)c1O [Compound 6a] | significant promoting effect |  |  |  | 27.02 ± 2.91 | 14.29 ± 1.71 | 5.23 ± 0.72 | a certain degree of radiation protection capacity |  |  | 84.9 ± 6.57 |  | 60.05 ± 5.39 | 76.41 ± 2.29 | 100.96 ± 1.07 |  | better inhibitory activity | 65.6 ± 2.17 | 71.7 ± 2.56 | radiation protection capability compared with curcumin (PC 12 cell lines; irradiated PC 12): better radiation protection capability |
|  | COc1ccc(/C=C/C(=O)CC(=O)/C=C/c2cc(CN(C)C)c(O)c(OC)c2)cc1O [Compound 11] | significant promoting effect |  |  |  | 35.85 ± 0.30 | 19.36 ± 1.66 | 7.59 ± 0.35 | a certain degree of radiation protection capacity |  |  | 94.2 ± 4.35 |  | 63.24 ± 1.07 | 72.52 ± 0.32 | 96.33 ± 1.04 | 96 |  | 65.09 ± 0.4 | 84.5 ± 3.4 | cell survival rate (radiation protection) (PC 12 cell lines; at 20 μM, irradiated PC 12): 94% |
|  | COc1cc(/C=C/C(=O)CC(=O)/C=C/c2ccc(O)c(OC)c2)ccc1O [Curcumin, curcumin, reference compound] |  | 59.6 ± 2.21 | 71.8 ± 1.52 | 86.4 ± 1.28 | 37.00 ± 1.12 | 21.55 ± 1.29 | 5.96 ± 0.03 |  |  |  | 75.47 ± 0.68 |  |  |  |  |  |  | 55.1 ± 1.37 | 59.39 ± 0.57 | aqueous solubility [4]: < 0.1 mg/mL |

From article PMC11085442 (Molecules, 2024)
